Values of other authors as cited in patent publication US10195165B2, “Methods of treating Prader-Willi syndrome” (Ovid Therapeutics Inc., priority 2015, dated 2019).

Tests used:
C57B16 mice [1] = conditions: 3 mg/kg dose, intraperitoneal; one-tailed t-test
[2] = test system: brain-derived neurotrophic factor (BDNF)
dopamine D3 [3] = target: T1, dopamine D3 (Homo sapiens, UniProt P35462); design: Novascreen; conditions: 1 μM captodiamine competing with a reference ligand
Target sequence in this assay (P35462 whole entry, species assumed): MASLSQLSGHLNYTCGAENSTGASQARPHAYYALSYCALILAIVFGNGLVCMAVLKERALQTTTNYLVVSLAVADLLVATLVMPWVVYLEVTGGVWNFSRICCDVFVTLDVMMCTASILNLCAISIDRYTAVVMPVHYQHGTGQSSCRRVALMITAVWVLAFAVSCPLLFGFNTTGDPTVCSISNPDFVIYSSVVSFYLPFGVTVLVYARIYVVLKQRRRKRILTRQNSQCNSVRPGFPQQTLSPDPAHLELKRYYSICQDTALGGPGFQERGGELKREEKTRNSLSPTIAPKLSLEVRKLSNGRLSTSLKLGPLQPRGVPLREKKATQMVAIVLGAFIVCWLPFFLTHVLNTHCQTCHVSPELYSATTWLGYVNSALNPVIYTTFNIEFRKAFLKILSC

[4] = test system: Glial Derived Neurotrophic Factor (GDNF)
C57B16 mice [5] = conditions: 3 and 5 mg/kg intraperitoneal once daily for 7 days
serotonin 5HT2c receptor = target: T2, serotonin 5HT2c receptor (Homo sapiens, UniProt P28335); conditions: 1 μM captodiamine competing with a reference ligand
T2 construct: Novascreen
T2 sequence (P28335 33-458): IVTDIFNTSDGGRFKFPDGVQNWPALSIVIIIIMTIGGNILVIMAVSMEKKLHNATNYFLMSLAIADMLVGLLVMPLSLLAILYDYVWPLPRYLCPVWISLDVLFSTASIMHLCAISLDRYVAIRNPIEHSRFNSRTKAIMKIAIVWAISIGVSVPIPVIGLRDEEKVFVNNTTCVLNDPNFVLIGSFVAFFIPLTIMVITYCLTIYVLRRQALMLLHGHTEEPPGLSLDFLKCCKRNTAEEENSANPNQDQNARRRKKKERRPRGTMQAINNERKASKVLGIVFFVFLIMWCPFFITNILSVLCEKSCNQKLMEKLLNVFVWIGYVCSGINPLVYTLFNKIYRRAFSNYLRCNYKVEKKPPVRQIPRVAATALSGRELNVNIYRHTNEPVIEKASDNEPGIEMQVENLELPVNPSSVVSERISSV

[6] = test system: Brain Derived Neurotrophic Factor (BDNF)
C57B16 mice [7] = conditions: 3 and 5 mg/kg intraperitoneal once daily for 7 days; remark: listed apart in the source
Sigma 2 receptor = target: T3, Sigma 2 receptor (Homo sapiens, UniProt Q5BJF2); conditions: 1 μM captodiamine competing with a reference ligand
T3 construct: Novascreen
T3 sequence (Q5BJF2 whole entry, species assumed): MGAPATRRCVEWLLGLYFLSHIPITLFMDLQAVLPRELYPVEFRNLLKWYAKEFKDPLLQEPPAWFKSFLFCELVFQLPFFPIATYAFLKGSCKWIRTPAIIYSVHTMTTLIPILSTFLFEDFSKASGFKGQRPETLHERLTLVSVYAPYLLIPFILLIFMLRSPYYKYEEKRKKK

Sigma 1 receptor [8] = target: T4, Sigma 1 receptor (Homo sapiens, UniProt Q99720)
T4 sequence (Q99720 whole entry, species assumed): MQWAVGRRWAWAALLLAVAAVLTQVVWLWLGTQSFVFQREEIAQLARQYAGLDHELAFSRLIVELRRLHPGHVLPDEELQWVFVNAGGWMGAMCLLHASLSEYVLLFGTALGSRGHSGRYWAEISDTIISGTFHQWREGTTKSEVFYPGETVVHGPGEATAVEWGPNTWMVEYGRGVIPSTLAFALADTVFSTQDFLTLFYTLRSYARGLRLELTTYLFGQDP

C57B16 mice [9] = conditions: 3 and 5 mg/kg intraperitoneal once daily for 7 days; remark: listed apart in the source
dopamine D3 [10] = target: T1, dopamine D3
Target sequence in this assay (P35462 whole entry): as the sequence (P35462 whole entry, species assumed) above

[11] = test system: car driving ability of individuals; conditions: compared to lorazepam
C57B16 mice [12] = conditions: 3 and 5 mg/kg intraperitoneal once daily for 7 days; remark: listed apart in the source
[13] = test system: subjects with mild to moderate anxiety weaned from benzodiazepine
Sigma 1 receptor [14] = target: T4, Sigma 1 receptor; design: Novascreen; conditions: 1 μM captodiamine competing with a reference ligand
C57B16 mice [15] = conditions: 3 and 5 mg/kg intraperitoneal once daily for 7 days; remark: listed apart in the source
5-HT2C = target: T5, 5-HT2C (Homo sapiens, UniProt P28335)
T5 sequence (P28335 33-458): T2 sequence (P28335 33-458)

- percent target inhibition, dopamine D3 receptor (dopamine D3 [3]): greater than 80%
- percent target inhibition, serotonin 5HT2c receptor (serotonin 5HT2c receptor): greater than 80%
- percent target inhibition, Sigma 2 receptor (Sigma 2 receptor): greater than 20%
- activity at sigma-1 receptor (Sigma 1 receptor [8]): sigma-1 receptor agonist
- activity at dopamine D3 (dopamine D3 [10]): dopamine D3 agonist
- percent target inhibition, Sigma 1 receptor (Sigma 1 receptor [14]): greater than 90%
- activity at 5-HT2C (5-HT2C): 5-HT2C antagonist
SMILES: CCCCSc1ccc(C(SCCN(C)C)c2ccccc2)cc1 (stereo not drawn) [captodiamine, 2-[(4-butylsulfanylphenyl)-phenylmethyl]sulfanyl-N,N-dimethylethanamine]
- time investigating objects during the training phase, Novel Object Recognition Task (C57B16 mice [1]): significantly longer investigating objects during the training phase
- BDNF protein levels, hypothalamus [2]: increase brain-derived neurotrophic factor (BDNF) protein levels in the hypothalamus
- levels of expression of GDNF, hypothalamus ([4]; hypothalamus): not in either the hippocampus or the hypothalamus
- levels of expression of GDNF, prefrontal cortex ([4]; prefrontal cortex): significantly decreased
- water maze spatial learning task (C57B16 mice [5]): significant pro-cognitive action
- BDNF expression levels and/or activity, hippocampus ([6]; hippocampus): no effect
- levels of expression of BDNF, hypothalamus ([6]; hypothalamus): significantly increased
- BDNF expression levels and/or activity, prefrontal cortex ([6]; prefrontal cortex): no effect
- basal locomotion in the open-field paradigm (C57B16 mice [7]): no influence on basal locomotion
- time in the center of the arena (open-field) (C57B16 mice [7]): significantly more time in the center
- exploring the open arms of the elevated X-maze (C57B16 mice [9]): significantly longer periods exploring the open arms
- concentration and dexterity when driving [11]: improved the concentration and dexterity
- tendency to drowsiness when driving [11]: without inducing a tendency to drowsiness
- pre-pulse inhibition paradigm (C57B16 mice [12]): no effect on the pre-pulse inhibition paradigm
- Tyrer Benzodiazepine Withdrawal Symptom Questionnaire (BWSQ) score ([13]; 150 mg/d for 45 days versus placebo, primary outcome): statistically significant difference (p<0.0001; ANCOVA with repeated measures) between the two study groups in favor of captodiamine
- drowsiness score ([13]; 150 mg/d versus placebo): declined from D0
- self-reported anxiety scores ([13]; 150 mg/d versus placebo, weaning and assessment phases): anxiety scores evolved little during the weaning phase and then fell during the assessment phase
- re-emergence of anxiety or withdrawal symptoms after stopping captodiamine ([13]; after treatment stopped at 45 days): no re-emergence of anxiety or evidence for withdrawal symptoms
- severity of benzodiazepine withdrawal symptoms ([13]; compared to placebo, background summary): lower severity of benzodiazepine withdrawal symptoms
- time to immobility in the forced swim test (C57B16 mice [15]): significant increase on time to immobility
